How the values were obtained:
[1] = target: T1, PSEN1 T147A–APH1A γ-secretase complex (Homo sapiens, UniProt P49768+Q92542+Q96BI3+Q9NZ42, T147A); assay: Aβ40 secretion, MEF cell pool restored with PSEN1 T147A–APH1A; format: cell-based; conditions: PSEN1 T147A (TM2)–APH1A cell pool; N = 3 to 4; mean (95% CI); decimal comma
T1 construct: expressed in transfected cells; host or cells: Psen1/2 double KO/Aph1ABC triple KO MEFs, pools without clonal selection
Procedure: (§1) We turned to experimental site–directed mutagenesis and selected a series of amino acids (Fig. 3) in the entrance channel for mutation to alanine. […] More importantly, they were all enzymatically active as shown by the secretion of Aβ40 in the supernatants of the cell cultures (Fig. 3B).
(§2) Conditional Psen1/2 double KO mice were crossed with conditional Aph1ABC triple KO mice ([29], [52], [58], [59]). At embryonic day 7.5, embryos were dissected and dissociated, and cells were plated in the presence of Dulbecco’s modified Eagle’s medium (DMEM)/F12 50% fetal calf serum (FCS) (Invitrogen). Primary MEFs were immortalized by transduction with LargeT antigen. Psen1/2 double KO/Aph1ABC triple KO MEFs were generated by transduction with a Cre-GFP–expressing adenoviral vector, and GFP-positive MEFs were sorted by fluorescence-activated cell sorting analysis. Psen1/2 Aph1ABC-deficient MEFs were maintained in DMEM/f12 10% FCS. To rescue γ-secretase expression, Psen1/2 double KO/Aph1ABC triple KO MEFs were transduced using Murine Stem Cell Virus retroviral vector system (pMSCV) viral vectors (Clontech) containing the human coding sequences of the different PSEN and APH1 homologs and the zeocin selection marker. An Internal Ribosome Entry Site sequence was cloned between the coding sequences for PSEN and APH1 to ensure co-expression of both proteins. Stable transfected cell lines were selected using 500-μg/ml zeocin (Invitrogen). Four different combinations were made: PSEN1 and APH1AL, PSEN1 and APH1B, PSEN2 and APH1AL, and PSEN2 and APH1B. These cell lines were transduced with pMSCV viral vectors (Clontech) expressing APP-C99-GFP-puromycin. […]
(§3) The number of plated cells and incubation times were determined in respect to linearity of Aβ peptide secretion, the dynamic range of Aβ peptide quantification in the medium, and sensitivity to dimethylsulfoxide (DMSO). […] The cell viability was assessed using the CellTiter-Glo Luminescent assay (Promega) that measures ATP production. […] We however measured five compounds at the Leuven site and noticed that absolute IC50 values were different (Fig. S2). […]

[2] = target: T2, PSEN1 T147A–APH1A γ-secretase complex (Homo sapiens, UniProt P49768, T147A); assay: as above; format: cell-based; conditions: decimal comma
T2 construct: expressed in transfected cells; host or cells: Psen1/2 double KO/Aph1ABC triple KO MEFs, pools without clonal selection
Procedure: as §1, §2, §3

Structure (SMILES) | IC50 [1] | IC50 ([2]; PSEN1 T147A (TM2)–APH1A cell pool, N = 3 to 4, mean (95% CI)) | IC50 fold change to WT ([2]; PSEN1 T147A–APH1A cell pool)
O=S(=O)(c1ccc(Cl)cc1)N1[C@H]2CC[C@@H]([C@H]1c1ccc(C(F)(F)F)cc1)[C@@H](O)C2 [(+)-9b] | 0.852 µM | – | –
C[C@H](NC(=O)Cc1cc(F)cc(F)c1)C(=O)N[C@H](C(=O)OC(C)(C)C)c1ccccc1 [DAPT] | – | 0.477 µM | 2,826 fold

Reference: PMC10318456, “Selective inhibitors of the PSEN1–gamma-secretase complex” (The Journal of Biological Chemistry, 2023)
